Assay results from patent US8058243B2, “Method for treating a brain cancer with ifenprodil” (HSC Research and Development Limited Partnership, priority 2006, dated 2011).
Counter-ions that a name gives are not always drawn. Like-named read-outs stand apart in the source and are kept apart here.

Tested on: murine neural precursor cells (neurosphere cultures)
Experiment: HTS of LOPAC library against secondary neurosphere cultures, MTT proliferation assay at 3 μM, day 7 (z score, P value)
Format: cell-based, mouse
[1] = yes/no: significantly inhibited neurosphere proliferation (P<0.01) in primary screen
[2] = LOPAC primary screen, neurosphere MTT proliferation, 3 μM, day 7
[3] = yes/no: significantly inhibited neurosphere proliferation in primary screen
[4] = LOPAC library screen, 3 μM, MTT, secondary neurosphere cultures, day 7
[5] = LOPAC screen, neurosphere MTT proliferation, 3 μM, day 7
[6] = primary LOPAC screen, 3 μM, MTT, neurosphere proliferation
[7] = yes/no: significantly inhibited neurosphere proliferation in the primary screen
[8] = LOPAC library screen, 3 μM, MTT, neurosphere cultures
[9] = yes = significantly inhibited neurosphere proliferation (P<0.01) in the primary screen
[10] = yes/no: significantly inhibited neurosphere proliferation (P<0.01) in the primary screen
[11] = LOPAC library screen at 3 μM, secondary neurosphere cultures, MTT

CC1CNCCN1S(=O)(=O)c1cccc2cnccc12.Cl.Cl (stereo not drawn) [1-(5-Isoquinolinylsulfonyl)-2-methylpiperazine dihydrochloride]
Z Score (168 h, 3 µM): 0.3352 | Z score (168 h, 3 µM): 0.335 | Activity [1]: no

Br.Br.N=C(N)SCCc1cccc(CCSC(=N)N)c1 [1,3-PBIT dihydrobromide]
Z Score: 2.221 | Z score [2]: 2.221 | Activity [3]: no

NCC(CP(=O)(O)O)c1ccc(Cl)cc1 (stereo not drawn) [Phaclofen]
Z Score: 0.9701 | Z score [2]: 0.970 | Activity [3]: no

CCCC1O[C@@H]2C[C@H]3[C@@H]4CCC5=CC(=O)C=C[C@]5(C)[C@H]4[C@@H](O)C[C@]3(C)[C@]2(C(=O)CO)O1 (stereo partly drawn) [Budesonide]
Z Score [4]: −1.994 | Z score [5]: −1.994

CS(=O)(=O)O.Cc1c(C(=O)c2cccc3ccccc23)c2cccc3c2n1[C@H](CN1CCOCC1)CO3 [(R)-(+)-WIN 55,212-2 mesylate]
Z Score: −0.6807 | Z score [6]: −0.681 | Activity [7]: no

N=C(N)NC(=O)Cc1c(Cl)cccc1Cl [Guanfacine hydrochloride]
Z Score [8]: 0.9271

CC(=O)NBr [N-Bromoacetamide]
Z Score [4]: −1.362 | Z score [5]: −1.362 | Activity [1]: no

NC1CCN(O)C1=O (stereo not drawn) [(B1)-HA-966]
Z Score: 1.157

O=C(O)c1cccnc1C(=O)O [Quinolinic acid]
Z Score (168 h, 3 µM): −2.419 | Z score (168 h, 3 µM): −2.419 | Activity [9]: yes

CC1Cc2cc3c(cc2C(c2ccc(N)cc2)=NN1)OCO3 (stereo not drawn) [GYKI 52895]
Activity: no | Z Score: −1.258 | Z score [2]: −1.258

CC(=O)O[C@H]1C[C@@]2(C)[C@@H](C[C@@H](O)[C@H]3[C@@]4(C)CC[C@@H](O)[C@@H](C)[C@@H]4CC[C@@]32C)/C1=C(\CCC=C(C)C)C(=O)O [Fusidic acid sodium]
Z Score (LOPAC library screen at 3 μM, MTT, secondary neurosphere cultures, screened in singlets): 2.045 | Z score [2]: 2.045 | Activity [1]: no

CC(C)CC(NC(=O)C1OC1C(=O)O)C(=O)NCCCCNC(=N)N (stereo not drawn) [E-64]
Z Score: −1.709 | Z score [5]: −1.709 | Activity [1]: no

Cc1cc(C(C)(C)C)c(O)c(C)c1CC1=NCCN1 [Oxymetazoline hydrochloride]
Z Score [4]: −2.72 | Z score [2]: −2.720 | Activity [9]: yes

CC(=O)c1ccc(S(=O)(=O)NC(=O)NC2CCCCC2)cc1 [Acetohexamide]
Z Score [4]: −2.24 | Z score [6]: −2.240 | Activity [7]: no

CC(N)(Cc1ccc(O)c(O)c1)C(=O)O (racemic) [(±)-3-(3,4-dihydroxyphenyl)-2-methyl-DL-alanine]
Z score (168 h, 3 µM): −1.894 | Activity [9]: no

CC1=NN=C(c2ccc(N)cc2)c2cc3c(cc2C1)OCO3 [GYKI 52466 hydrochloride]
Z Score [4]: −1.864 | Z score [2]: −1.864 | Activity [9]: no

Cn1c(=O)c2c(ncn2C)n(C)c1=O [Caffeine]
Z Score [8]: 0.4113 | Z score [5]: 0.411

Br.C=CCN1CCc2cc(O)c(O)cc2C(c2ccccc2)C1 (stereo not drawn) [(B1)-SKF 38393, N-allyl-, hydrobromide]
Z Score: −1.59

COc1cc2nc(N3CCN(C(=O)OCc4ccccc4)[C@H](C(=O)NC(C)(C)C)C3)nc(N)c2cc1OC [L-765,314]
Z Score: −0.8308 | Z score [2]: −0.831 | Activity [10]: no

CCN(CC)CC.Nc1ncnc2c1ncn2C1OC2COP(O)(=S)O[C@@H]2[C@@H]1O (stereo partly drawn) [Rp-cAMPS triethylamine]
Activity: no | Z Score: 1.186 | Z score: 1.186

CN(N=O)c1ccc(O)c(O)c1 [Me-3,4-dephostatin]
Z Score: 0.5834 | Z score [2]: 0.583 | Activity [9]: no

Cc1nc2c([nH]1)c(=O)n(C)c(=O)n2Cc1ccco1 [Furafylline]
Z Score [8]: 1.025 | Z score [2]: 1.025 | Activity [1]: no

S(−)-Timolol maleate
Z Score [11]: −0.7675 | Z score [2]: −0.767 | Activity [3]: no

NC/C=C\C(=O)O [cis-4-Aminocrotonic acid]
Z Score [11]: −1.088 | Z score [6]: −1.088 | Activity [7]: no

COc1ccc2c(c1)[C@]13CCCC[C@@H]1[C@H](C2)N(C)CC3
Z Score: −0.7932 | Z score [2]: −0.793 | Activity [10]: no

CCCCS(=N)(=O)CCC(N)C(=O)O (racemic) [DL-Buthionine-[S,R]-sulfoximine]
Z Score [11]: −1.022 | Z score [5]: −1.022 | Activity [1]: no

COc1cccc(OC)c1OCCNCC1CSc2ccccc2O1 (stereo not drawn) [Benoxathian hydrochloride]
Z Score (168 h, 3 µM): 0.2653 | Z score (168 h, 3 µM): 0.265 | Activity [1]: no

Oc1ccc(O)cc1 [Hydroquinone]
Z Score [8]: 0.428 | Z score [2]: 0.428 | Activity [1]: no

N=C(N)N/N=C/c1c(Cl)cccc1Cl [Guanabenz acetate]
Z Score [4]: −1.906 | Z score [2]: −1.906 | Activity [1]: no

CN1CCN(c2ccc3ccccc3n2)CC1.O=C(O)/C=C\C(=O)O.O=C(O)/C=C\C(=O)O [Quipazine, N-methyl-, dimaleate]
Z Score [11]: −0.3254 | Z score [2]: −0.325 | Activity [3]: no

CC(C)(C)NCC(O)c1ccccc1Cl (stereo not drawn) [Tulobuterol hydrochloride]
Z Score [4]: −1.767 | Z score [2]: −1.767 | Activity [3]: no

CC(CCc1ccc(O)cc1)NCCc1ccc(O)c(O)c1 (stereo not drawn) [Dobutamine hydrochloride]
Z Score [8]: 0.3185 | Z score [5]: 0.319 | Activity [1]: no

CC1(C)CCC=[N+]1[O-] [5,5-Dimethyl-1-pyrroline-N-oxide]
Z Score (168 h, 3 µM): −1.666 | Z score (168 h, 3 µM): −1.666 | Activity [1]: no

CCCN(CCC)CCc1c[nH]c2ccc(C(N)=O)cc12.O=C(O)/C=C\C(=O)O
Z Score: −1.73 | Z score [5]: −1.730 | Activity [1]: no

O=C(O)/C=C/c1ccc(O)c(O)c1 [Caffeic Acid]
Z Score [8]: 0.3199 | Z score [5]: 0.320 | Activity [1]: no

CN(C)c1cc2c(Nc3ccc4c(cnn4Cc4ccccc4)c3)ncnc2cn1 [GW2974]
Z Score: −0.5164 | Z score [2]: −0.516 | Activity [1]: no

COC(=O)C1=CCCN(C)C1 [Arecoline hydrobromide]
Activity: no | Z Score: −0.111 | Z score: −0.111

OC[C@H]1NC[C@@H](O)[C@@H]1O [1,4-Dideoxy-1,4-imino-D-arabinitol]
Z Score (168 h, 3 µM): −0.008617 | Z score (168 h, 3 µM): −0.009 | Activity [1]: no

Clc1cccc(Cl)c1N=C1NCCN1 [Clonidine hydrochloride]
Z Score [8]: 1.041 | Z score [5]: 1.041 | Activity [1]: no

CNC(=O)[C@H]1O[C@@H](n2cnc3c(NCc4cccc(I)c4)nc(Cl)nc32)[C@H](O)[C@@H]1O [Chloro-IB-MECA]
Z Score [11]: −0.8471 | Z score [5]: −0.847 | Activity [1]: no

CC1CCN=C(N)S1.Cl (racemic) [(±)-AMT hydrochloride]
Z score [2]: −2.366 | Activity [9]: yes

CCCOc1ccccc1-c1nc2nn[nH]c2c(=O)[nH]1 [Zaprinast]
Z Score [4]: −2.506 | Z score [2]: −2.506 | Activity [9]: yes

CCCN1CCC[C@@H](c2cccc(O)c2)C1.Cl [S(−)-3PPP hydrochloride]
Z Score: −0.4205 | Z score [2]: −0.421 | Activity [3]: no

Cl.Cl.Cn1cnc(CCN)c1 [1-Methylhistamine dihydrochloride]
Z score [2]: 0.307 | Activity [9]: no

COC[C@H]1OC(=O)c2coc3c2[C@@]1(C)C1=C(C3=O)[C@@H]2CCC(=O)[C@@]2(C)C[C@H]1OC(C)=O [Wortmannin from Penicillium funiculosum]
Z Score: 0.4079 | Z score [6]: 0.408 | Activity [7]: no

Clc1cnc(Oc2ccc(Oc3ncc(Cl)cc3Cl)cc2)c(Cl)c1 [TCPOBOP]
Z Score [4]: −2.008 | Z score [2]: −2.008 | Activity [9]: no

Tyrphostin AG 808
Z Score [4]: −1.315 | Z score [6]: −1.315 | Activity [7]: no

O=C(O)c1cc(=O)c2c(Cl)cc(Cl)cc2[nH]1 [5,7-Dichlorokynurenic acid]
Z Score [8]: 0.9011 | Z score [2]: 0.901 | Activity [1]: no

N[C@@H](Cc1c[nH]c2ccccc12)C(=O)O [L-Tryptophan]
Activity: no | Z Score: 0.2241 | Z score: 0.224

CC1=C(/C=C/C(C)=C/C=C/C(C)=C/C(=O)O)C(C)(C)CCC1 [Retinoic acid]
Z Score [11]: −0.8657 | Z score [2]: −0.866

Oc1ccc2c3c1O[C@H]1c4[nH]c5ccccc5c4C[C@@]4(O)[C@@H](C2)N(CC2CC2)CC[C@]314 [Naltrindole hydrochloride]
Z Score: −0.314 | Z score [2]: −0.314 | Activity [9]: no

NC(=O)COc1c(F)cc(SCCNS(=O)(=O)c2ccccc2)cc1F [2,6-Difluoro-4-[2-(phenylsulfonylamino)ethylthio]phenoxyacetamide]
Z Score: −0.4983 | Z score [2]: −0.498 | Activity [9]: no

CCCCCCCC/C=C\CCCCCCCC(=O)NCCO [N-Oleoylethanolamine]
Z Score (168 h, 3 µM): −0.4116 | Z score (168 h, 3 µM): −0.412 | Activity [3]: no

O=c1[nH]c2ccccc2n1CCCN1CCN(C(c2ccccc2)c2ccccc2)CC1 [Oxatomide]
Z Score [8]: 0.5957 | Z score [2]: 0.596 | Activity [3]: no

CN1CCc2cc3c(cc2[C@H]1[C@@H]1OC(=O)c2c1ccc1c2OCO1)OCO3 [(+)-Bicuculline]
Z Score: −0.1989 | Z score [2]: −0.199 | Activity [10]: no
